Assay results reported in ChEMBL document CHEMBL1159300, “Salmahyrtisol A, a novel cytotoxic sesterterpene from the Red Sea sponge Hyrtios erecta” (J Nat Prod, 2002).

Assays:
Type in all cases: functional, cell-based
[1] = test system: A549; test: Cytotoxicity against human A549 cells
[2] = test system: P388; test: Cytotoxicity against mouse P388 cells
[3] = test system: HT-29; test: Cytotoxicity against human HT-29 cells

Measured: IC50

CC(=O)O[C@H]1CC[C@]2(C)[C@H]3C[C@@H](O)[C@]4(C)C5=C(CC[C@H]4[C@]3(C)CC[C@H]2C1(C)C)COC5=O
≥ 1 µg/mL: [1] | [2] | [3]

CC(=O)OC[C@]1(C)CCC[C@]2(C)[C@H]3C[C@@H](O)[C@]4(C)C5=C(CC[C@H]4[C@]3(C)CC[C@@H]12)COC5=O
≥ 1 µg/mL: [1] | [2] | [3]

CC(=O)O[C@@H]1c2occc2[C@@H](O)C[C@H]2[C@]3(C)CC[C@H]4C(C)(C)CCC[C@]4(C)[C@H]3C[C@@]21C [SALMAHYRTISOL A]
≥ 1 µg/mL: [1] | [2] | [3]

CC1(C)CCC[C@]2(C)[C@H]3C[C@@H](O)[C@]4(C)c5cocc5C(=O)C[C@H]4[C@]3(C)CC[C@@H]12 [SALMAHYRTISOL B]
≥ 1 µg/mL: [1] | [2] | [3]
